Assay results from US9695219B2, “Polypeptide having antibacterial activity and angiogenesis-inducing activity and wound-healing drug containing said polypeptide” (priority 2009, dated 2017).
Where a SMILES comes first, the peptide text is derived from it. [ ]: non-standard residue; d: D form.

Key:
[1] = tested on: Pseudomonas aeruginosa (clinical strain 8); experiment: MIC measurement, broth microdilution; assay type: cell-based; details: 37° C. for 20 hours; tested twice, first/second value where not matched
Method: (§1) (CLSI), but, in this Example, its measurement was carried out by a broth microdilution method in accordance with “M100-S17/M7-A7” (Performance Standards for Antimicrobial Susceptibility Testing; Seventeenth Informational Supplement, Vol. 27 No. 1) published by CLSI on January, 2007. That is, sensitivity test of agents was carried out using a microtiter plate or test tubes.
(§2) Each peptide was prepared to an optional concentration, and the solutions were serially diluted from the concentration. The polypeptide at each concentration stage was added to a microplate or test tubes, and the bacterial suspension was added thereto.

[2] = Stability in rat serum (HPLC); assay type: in vitro ADME; details: 37° C.
Method: The stability of the polypeptides in serum was evaluated. In human serum (purchased from KAC Co., Ltd.), or in rat serum obtained by collecting blood from a rat, then leaving the collected blood to stand at room temperature followed by centrifugation, each of the peptides was dissolved so as to attain a final concentration of 500 μg/mL, and the obtained solutions were left to stand at 37° C. After leaving to stand for 3 min or 10 min, these solutions were subjected to HPLC chromatogram analysis to detect peaks of the decomposition products, and calculate the ratio of the concentration of the peptides which remained in the solutions relative to the starting concentration. In addition, the half-lives of the peptides in serum were also calculated.

[3] = tested on: Pseudomonas aeruginosa (clinical strain 9); experiment: MIC measurement, broth microdilution; assay type: cell-based; details: 37° C. for 20 hours; tested twice, first/second value where not matched
Method: as §1, §2

[4] = tested on: Normal human dermal fibroblasts (NHDFs); assay type: cell-based
Method: Next, the effect of these polypeptides on the growth of human umbilical vein endothelial cells (HUVECs) was studied. A cell growth activity of the polypeptides was examined using Cell Counting Kit (WST-1) available from Dojindo Laboratories. As a negative control (Control), polypeptide-free group was used. Cells (human umbilical vein endothelial cells: HUVECs) were plated in a 96-well plate (0.5×10^4 cells/well/100 μL, serum 1%). About 3 hours after plating the cells, the polypeptides (1, 3, 10, 30 or 100 μg/ml) and FGF (100 ng/ml) as a positive control were individually added thereto in an amount of 100 μL. To the unstimulated group, only a medium was added in an amount of 100 μL. The plate was left to stand in a CO2 incubator for about 48 hours. Thereafter, WST-1 reagent was added to each well in an amount of 20 μL, and then the plate was left to stand in a CO2 incubator for about 2 hours. Absorbances at wavelengths of 450 nm and 620 nm were measured using Wallac 1420 ARVOsx (Program: WST-1). A value of O.D.450-O.D.620 was calculated for each measurement. […] The cell growth activity was evaluated on the basis of the ratio of Net O.D.450 of polypeptide-containing groups relative to Net O.D.450 of the unstimulated group.
Then, the effect on the growth of normal human dermal fibroblasts (NHDFs) was also studied by the same method as described above.

[5] = tested on: cut-wound model, SD rats; experiment: Evaluation of skin tissue in cut wound healing (HE staining); assay type: in vivo, rat; details: 10 μg dropwise once a day until suture removal, skin collected Day 6
Method: A cut-wound model was produced using 7-week old male SD rats (Crl:CD), and the change in the skin tissue caused by administering the polypeptides of the present invention was evaluated. A cut wound of 30 to 36 mm was made on the back of the rats using a safety razor, and sutured at 3 points equally spaced (Day 0). Onto the suture site, 50 μL of each of the test substances which were respectively adjusted to the concentration of 200 μg/mL was added dropwise (the added amount was 10 μg). Each test substance was administered dropwise once a day till the day when the sutures were removed. On Day 3 after the suturing, the sutures were removed; and, on Day 6, the skin tissue in the cut wound site was collected to evaluate the skin by HE staining

[6] = tested on: Pseudomonas aeruginosa (clinical strain 6); experiment: MIC measurement, broth microdilution; assay type: cell-based; details: 37° C. for 20 hours; tested twice, first/second value where not matched
Method: as §1, §2

CC[C@H](C)[C@H](NC(=O)[C@H](CC(C)C)NC(=O)[C@H](CCCCN)NC(=O)[C@@H](N)CC(C)C)C(=O)N[C@@H](Cc1ccccc1)C(=O)N[C@@H](CC(C)C)C(=O)N[C@@H](Cc1c[nH]cn1)C(=O)N[C@@H](CCCNC(=N)N)C(=O)N[C@@H](CC(C)C)C(=O)N[C@@H](CCCCN)C(=O)N[C@@H](CCCNC(=N)N)C(=O)N[C@@H](CCSC)C(=O)N[C@@H](CCCNC(=N)N)C(=O)N[C@@H](CCCCN)C(=O)N[C@@H](CCCNC(=N)N)C(=O)N[C@@H](CC(C)C)C(=O)N[C@H](CCCCN)C(=O)N[C@@H](CCCNC(=N)N)C(=O)N[C@@H](CCCCN)C(N)=O [SR-08] (H-LKLIFLHRLKRMRKRL[dK]RK-NH2; N-terminus assumed)
MIC, Pseudomonas aeruginosa (clinical strain 8) [1]: 16/32 | Ratio of peptide remaining relative to the starting concentration, rat serum, 0 min ([2]; 500 μg/mL, 0 min): 100 | remaining at 0.05 h, 500 μg/mL ([2]; rat, rat serum, 3 min, read-out: Ratio of peptide remaining relative to the starting concentration, rat serum, 3 min): 87% | remaining at 10 min, 500 μg/mL ([2]; rat, rat serum, 10 min, read-out: Ratio of peptide remaining relative to the starting concentration, rat serum, 10 min): 86.9% | half-life ([2]; rat, serum, 500 μg/mL): 1 h | MIC, Pseudomonas aeruginosa (clinical strain 9) [3]: 16/64 | Concentration above which the polypeptide tended to exhibit toxicity, NHDFs (FIG. 4) [4]: > 30000 ng/mL | Granulation and collagen at cut wound site (HE staining) [5]: increased compared to Saline | Thickening in stratum spinosum epidermidis (HE staining) [5]: less than the saline group | MIC, Pseudomonas aeruginosa (clinical strain 6) [6]: 16/32
